Several values for one entry are separate records, joined by “and”; a condition that tells them apart may be missing. Equal entries are not always repeated.
Assays:
Set-up in all cases: species or system wheat
Conditions in all cases: in vivo
[1] = test system: DON toxin
[2] = test system: DON toxin; remark: listed apart in the source
[3] = test system: toxin synthesis capability of thalli
[4] = test system: DON toxin; remark: listed apart in the source
[5] = test system: DON toxin; remark: listed apart in the source
[6] = test system: DON toxin; remark: listed apart in the source

Compound	Grain Toxin Content mg of DON/kg of grain [1]	Toxin Reduction Percentage % [1]	Grain Toxin Content [2]	DON Synthesis Capability [3]	toxin contamination level of grains [4]	DON Reduction Percentage [5] [%]	Grain Toxin Content (mg of DON/Kg of grain) [6]	Rate of Decrease in Toxin Content in Grains (%) [6] [%]
Tebuconazole	1.89 mg of DON/kg of grain and 2.14 mg of DON/kg of grain and 2.4 mg of DON/kg of grain and 2.8 mg of DON/kg of grain	58.19% and 52.65% and 46.90% and 38.05%	4.02 μg/g of kernels and 3.29 μg/g of kernels and 2.14 μg/g of kernels and 2.08 μg/g of kernels	19.88 and 18.35 and 18.95 and 19.02 and 19.41				
OCC1=CC(N[C@H]2C[C@H](CO)[C@@H](OC3O[C@H](CO)[C@@H](O)[C@H](O)[C@H]3O)C(O)[C@H]2O)[C@H](O)[C@@H](O)C1O (stereo partly shown) [Jinggangmycin, jinggangmycin A]	2.86 mg of DON/kg of grain and 3.82 mg of DON/kg of grain and 4.02 mg of DON/kg of grain and 4.14 mg of DON/kg of grain		2.89 μg/g of kernels and 3.24 μg/g of kernels and 3.86 μg/g of kernels and 4.2 μg/g of kernels and 4.77 μg/g of kernels					
COC(=O)Nc1nc2ccccc2[nH]1 [Carbendazim, carbendazim]	2.95 mg of DON/kg of grain	34.73%		28.94	4.4 mg/kg of grains	55.00	4.35	32.7

Reference: US10588316B2 (priority 2015, dated 2020)
